# Source: patent US10201536B2, “Methods and pharmaceutical compositions for the treatment of bacterial infections in patients suffering from cirrhosis” (INSERM (INSTITUT NATIONAL DE LA SANTE ET DE LA RECHERCHE …, priority 2015, dated 2019)
# Experiments:
# Gp91phox [1] = assay: Flow cytometry of 7D5 antibody binding to gp91phox at the PMN surface after elastase at 4° C.; assay type: cell-based, human; settings: PMN treated at 4° C. for 1 H, 0.5 unit
# Description: (§1) FIG. 8. Elastase induces the degradation of gp91phox and p22phox in healthy PMN. (A and B) Western-blot analysis and densitometric quantification of gp91phox and p22phox in healthy PMN treated in the absence or presence of elastase at 0.1 and 0.5 units for 1 hour. (C and D) Western-blot analysis densitometric quantification of gp91phox and […] in healthy PMN treated in the absence or presence of the elastase inhibitor (NEI) at 100 μM for 15 min before stimulation with fMLP (1 μM) for 45 min. (E) Western-blot analysis densitometric quantification of gp91phox in healthy PMN pretreated in the absence or presence of the elastase inhibitor (NEI) at 100 μM for 15 min before incubation for 45 min with a cell-free degranulation supernatant obtained from fMLP (1 μM, 2 min) stimulated PMN. Blots are representative of 4 experiments and densitometric analyses are cumulative and expressed as percentage of the actin level. […] (F) Sensorgrams of the PMN specific binding and dissociation to the anti-gp91phox antibody (7D5) coated to the CM3 sensorchip, analysed with the Biacore X100, as a function of time. […] Data are representative of 3 independent experiments are expressed as resonance unit (RU). (G) Flow cytometry quantification of the Gp91phox expression at the surface of PMN treated or not (Control) with 0.5 unit Elastase at 4° C. […]
# Gp91phox [2] = assay: Biacore SPR binding of intact PMN to anti-gp91phox 7D5 antibody; parameters: species or system human; settings: PMN pretreated 1 H at 37° C. (0.5 units) and washed
# Description: as §1
# Gp91phox [3] = assay: gp91phox degradation in healthy PMN treated with purified elastase, western-blot; assay type: cell-based, human; settings: 1 H at 37° C., 0.1 and 0.5 unit
# Description: as §1
# p22phox = p22phox degradation in healthy PMN treated with purified elastase, western-blot; assay type: cell-based, human; settings: 1 H at 37° C., 0.5 unit
# Description: as §1
# Gp91phox mRNA = Gp91phox mRNA quantification in neutrophils from cirrhotic patients; assay type: cell-based, human; settings: patient neutrophils, 2.5 μg/ml, 30 min
# Description: (§2) FIG. 3. The TLR7/8 agonist CL097 stimulated Gp91phox RNA production and synthesis in neutrophils from patients with advanced alcohol cirrhosis. Neutrophils from cirrhotic patients were treated in the absence (buffer) or presence of CL097 (2.5 μg/ml) for 30 min at 37° C. and the amount of Gp91phox mRNA was quantified and expressed as percentage of control (Buffer) (Panel A, n=6, *: P<0.05). The expression of Gp91phox was determined by western-blot assays and expressed as percentage±SEM of that of neutrophils of healthy donors (Panel B, n=4, *: P<0.05).
# (§3) To determine whether this treatment improves NADPH oxidase activity, superoxyde production (02-°) was measured by the specific cytochrome C reduction assay, after cell stimulation with the bacterial peptide fMLP. […] Promisingly, these CL097 original properties were also observed in a model of ROS production in whole blood from patients (FIG. 5B).
# [4] = test system: whole blood from cirrhotic patients; assay: ROS production, luminol chemiluminescence, whole blood from cirrhotic patients; assay type: cell-based, human
# Description: (§4) FIG. 5. The TLR7/8 agonist CL097 restored the production of reactive oxygen species by purified neutrophils and in whole blood from patients. ROS production was measured by the highly sensitive luminol-enhanced chemiluminescence assay with purified neutrophils (0.5×10^6 cells/450μl Hanks Balanced salt solution, Panel A) and with whole blood (20 μl in 450 μl PBS containing 0.120 mM calcium, Panel B) from patients with advanced alcohol cirrhosis. Cells were treated for 15 min with the TLR7/8 agonist […], then with 1 μM fMLP (Panel A). Results represent the peak of chemiluminescence response expressed in cpm (mean±SEM of 8 experiments).
# (§5) FIG. 6. […] Whole blood (20 μl) from healthy donors (Panel A) and cirrhotic patients (Panel B) were treated in 450 μL PBS containing 0.120 mM calcium), in the absence (control) and presence of R848 or CL097 (0.25-5 μg/ml) for 15 min. Cells were then stimulated with 1 μM fMLP. Results represent the peak of chemiluminescence response induced by fMLP and are expressed in cpm (mean±SEM of 4-6, *: P<0.05).
# as §3
# [5] = test system: neutrophils from patients with advanced alcoholic cirrhosis; assay: Superoxide production, cytochrome C reduction assay, patient neutrophils; assay type: cell-based, human; settings: 2.5 μg/ml 15 min, then 1 μM fMLP
# Description: (§6) FIG. 4. The TLR7/8 agonist CL097 restored the production of superoxide in neutrophils from patients with advanced alcohol cirrhosis. Neutrophils from healthy donors and patients with advanced alcoholic cirrhosis were treated for 15 min with the TLR7/8 agonist (2.5 μg/ml), then with PBS or 1 μM fMLP. Results represent the mean of superoxide production±SEM expressed in nmole/10^6 cells (n=8, *: P <0.05).
# as §3
# E coli [6] = assay: Bactericidal activity of neutrophils from cirrhotic patients against E coli; assay type: cell-based, human
# Description: (§7) FIG. 7. Impaired bactericidal activity of neutrophils from cirrhotic patients and beneficial effects of the TLR7/8 agonist CL097. (A) Neutrophils from healthy volunteers (Control) and cirrhotic patients were incubated with E coli for 5 min, then treated or not (Buffer) with fMLP (1 μM) for 25 min. (B, C): Neutrophils incubated with bacteria were treated without (PBS) and with CL097 (1 μg/ml) for 2 min before stimulation with fMLP for 23 min. Cells were lysed and the number of bacterial colony was determined and expressed as percentage of that of control resting cells (A, n=6), or % of that of resting cells (PBS) in both cell populations (B, C, n=6); *P<0.05 (Data published in Boussif A et al, J Hepatol. 2016 64:1041-8. doi: 10.1016/j.jhep.2015.12.005. Epub 2015 Dec. 21).
# (§8) Thus, TLR7/8 activation may provide beneficial effects on neutrophil host-defense activities in patients with cirrhosis.
# [7] = test system: purified neutrophils from patients with advanced alcohol cirrhosis; assay: ROS production, luminol-enhanced chemiluminescence, purified patient neutrophils; assay type: cell-based, human
# Description: as §4, §3
# E coli [8] = assay: Bactericidal activity of neutrophils from healthy volunteers against E coli; assay type: cell-based, human
# Description: as §7, §8
# [9] = test system: neutrophils from healthy donors; assay: Superoxide production, cytochrome C reduction assay, healthy neutrophils; assay type: cell-based, human; settings: 2.5 μg/ml 15 min, then 1 μM fMLP
# Description: as §6, §3
# Gp91phox [10] = assay: Gp91phox expression by western-blot in neutrophils from cirrhotic patients; assay type: cell-based, human; settings: patient neutrophils, 2.5 μg/ml, 30 min
# Description: as §2, §3
# cirrhotic BDL rats = assay: In vivo treatment of cirrhotic bile duct ligated (BDL) rats, ROS production in whole blood; parameters: species or system Wistar female rats; settings: 2.2 mg/kg at day 21, parenteral administration, fMLP 1 μM ex vivo
# Description: FIG. 11. In vivo treatment of cirrhotic rats by R848 reverses the deficient ROS production in whole blood. The common bile duct with Wistar female rats was ligated (BDL) under general anesthesia (10 mg Avertin, IP) close to the liver hilum immediately below the bifurcation as described previously (Mohammadi et al, Liver Int. 2009, 29(5):692-700). All surgical procedures were performed under sterile conditions. Blood was collected in Eppendorf tubes (approximately 0.5 ml in 10 mM EDTA) with a 1 inch hypodermic needle inserted into the vessel in the mid ventral surface of the tail. White blood cells were counted using a MS9-5V Analyser Counter (Melet Schloesing Laboratories). At day 21, the cirrhotic BDL rats were treated with R848 (2.2 mg/kg) as reported (McCluskie M J et al, Antiviral Res. 69:77-85, 2006). Control rats were not treated. The production of reactive oxygen species were measured in whole blood at the indicated day. Briefly, ROS production was continueously recorded in a thermostated bioluminometer (Berthold LB940) using 3 blood volumes (0.9, 1.8 and 3.75 μl) incubated at 37° C. in 0.5 ml Hanks balanced salt solution (HBSS) containing 10 μM luminol. Cells were treated with cytochalasin b (0.25 μg/ml) for 5-10 min then stimulated with the bacterial-derived peptide fMet-Leu-he (fMLP, 1 μM). ROS production represents the peak of chemiluminescence response in whole blood. […]
# [11] = test system: whole blood from healthy donors; assay: ROS production, luminol chemiluminescence, whole blood from healthy donors; assay type: cell-based, human; settings: 0.25-5 μg/ml 15 min, then 1 μM fMLP
# Description: as §5, §3
molecule,measurement,setting,value
"elastase: purified elastase, a serine protease produced by neutrophils",7D5 antibody binding (FACS scan),Gp91phox [1],strongly inhibited
same,PMN binding to 7D5 antibody (SPR),Gp91phox [2],markedly reduced
same,gp91phox degradation,Gp91phox [3],approximately 50%
same,p22phox degradation,p22phox,degradation of p22phox was observed
CCOCc1nc2c([nH]1)c(N)nc1ccccc12 [CL097],Gp91phox mRNA level,Gp91phox mRNA,increased
same,ROS production in whole blood (stimulation and potentiation properties),[4]; whole blood from patients,also observed
same,fMLP-induced superoxide production,[5],potentiated fMLP-induced superoxide production to a level similar of that of neutrophils from healthy donors
same,bacterial killing by agonist alone,"E coli [6]; neutrophils from cirrhotic patients, 1 μg/ml",significant bacterial killing
same,fMLP-induced bacterial killing,"E coli [6]; patients' neutrophils, 1 μg/ml 2 min before fMLP 23 min",strongly potentiated
same,fMLP-induced ROS production,"[7]; agonist 15 min, then 1 μM fMLP",strongly potentiate
same,ROS production by agonist by itself,"[7]; agonist alone, 15 min",weak production of ROS
same,fMLP-induced bacterial killing,"E coli [8]; control neutrophils, 1 μg/ml 2 min before fMLP 23 min",non significant increase
same,bacterial killing by agonist alone,"E coli [8]; neutrophils from controls, 1 μg/ml",significant bacterial killing
same,optimal production of superoxide,[9],further increased
same,expression of Gp91phox (western-blot),Gp91phox [10],restored
"CCOCc1nc2c(N)nc3ccccc3c2n1CC(C)(C)O [R848, 4-amino-2-ethoxymethyl-α,α-dimethyl-1H-imidazol[4,5-c]quinoline-1-ethanol]","improvement of ROS production, potency compared with CL097","[4]; whole blood from cirrhotic patients, 0.25-5 μg/ml 15 min, then 1 μM fMLP",more potent than CL097
same,ROS production in whole blood of cirrhotic rats,cirrhotic BDL rats,reversed the deficient ROS production
same,"improvement of ROS production, potency compared with CL097",[11],more potent than CL097
